Data: the supplement of paper PMC10307832

Assays:
Test in all cases: relative viability (nuclei count vs DMSO), 5 days (fraction); higher = more cells survive
[1] = compound: O=C1NC(=O)[C@@H](c2cn3c4c(cccc24)CCC3)[C@@H]1c1c[nH]c2ccccc12 [Tivantinib] + C[C@]1(O)C[C@@H](c2nc(-c3ccc4ccc(-c5ccccc5)nc4c3)c3c(N)nccn32)C1 [Linsitinib] (partner 1 µM)
Procedure, shortened: (§1)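 One day after seeding in 1536-well plates, lung cancer cell lines were dosed by pin tool. Dosing was either single-drug or a fixed anchor-drug dose plus five library-drug doses (not always all listed) in √10 steps. After 5 days, nuclei were stained in one fix-and-stain step and counted on 4× images, and relative viability is the nuclei count of treated wells over that of vehicle wells, given as the median of duplicate plates.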

[2] = compound: O=C1NC(=O)[C@@H](c2cn3c4c(cccc24)CCC3)[C@@H]1c1c[nH]c2ccccc12 [Tivantinib] + CC1(C)CCC(c2ccc(Cl)cc2)=C(CN2CCN(c3ccc(C(=O)NS(=O)(=O)c4ccc(N[C@H](CCN5CCOCC5)CSc5ccccc5)c(S(=O)(=O)C(F)(F)F)c4)cc3)CC2)C1 [Navitoclax] (partner 0.5 µM)
Procedure, shortened: as §1

[3] = compound: CC1(COc2ccc3c(c2)ncn3-c2ccc3cccc(N4CCC(N)CC4)c3n2)COC1 [Crenolanib] + O=C(CCCCCCC(=O)Nc1ccccc1)NO [Vorinostat] (partner 1 µM)
Procedure, shortened: as §1

[4] = compound: CC1(COc2ccc3c(c2)ncn3-c2ccc3cccc(N4CCC(N)CC4)c3n2)COC1 [Crenolanib] + COc1cccc2cc(-c3nc([C@H]4CC[C@H](C(=O)O)CC4)n4ncnc(N)c34)[nH]c12 [OSI-027] (partner 0.5 µM)
Procedure, shortened: as §1

Row | Cell Line | relative viability ([1]; first compound 0.01 µM) | relative viability ([1]; first compound 0.03162 µM) | relative viability ([1]; first compound 0.1 µM) | relative viability ([1]; first compound 0.3162 µM) | relative viability ([2]; first compound 0.01 µM) | relative viability ([2]; first compound 0.03162 µM) | relative viability ([2]; first compound 0.1 µM) | relative viability ([2]; first compound 0.3162 µM) | relative viability ([3]; first compound 0.01 µM) | relative viability ([3]; first compound 0.1 µM) | relative viability ([3]; first compound 0.3162 µM) | relative viability ([3]; first compound 1 µM) | relative viability ([4]; first compound 0.01 µM) | relative viability ([4]; first compound 0.03162 µM) | relative viability ([4]; first compound 0.1 µM) | relative viability ([4]; first compound 0.3162 µM) | relative viability ([4]; first compound 1 µM) | relative viability ([3]; first compound 0.03162 µM)
1 | PC-3 [JPC-3] | 0.929 | 1.04 | 1.01 | 0.708 | 0.775 | 0.829 | 0.801 | 0.574 | 0.75 | 0.824 | 0.7 | 0.582 | 0.804 | 0.725 | 0.803 | 0.792 | 0.719 | 
2 | PC-14 | 0.941 | 0.923 | 0.931 | 0.892 | 1.05 | 0.926 | 0.981 | 0.947 | 0.95 | 0.704 | 0.875 | 0.633 | 0.883 | 0.776 | 0.764 | 0.816 | 0.617 | 0.678
3 | RERF-LC-KJ | 0.895 | 0.945 | 0.826 | 0.808 | 0.901 | 1.05 | 0.818 | 0.829 | 0.759 | 0.664 | 0.689 | 0.711 | 0.583 | 0.582 | 0.574 | 0.648 | 0.448 | 0.707
4 | SK-LU-1 | 1.07 | 1.17 | 0.982 | 1.14 | 0.864 | 0.783 | 0.941 | 0.733 | 0.735 | 0.603 | 0.811 | 0.795 | 0.386 | 0.385 | 0.218 | 0.372 | 0.349 | 0.863
5 | SK-MES-1 | 1.13 | 1.03 | 0.98 | 0.82 | 1.24 | 1.17 | 1.1 | 0.896 | 1.15 | 0.954 | 1.1 | 1.05 | 0.598 | 0.657 | 0.508 | 0.581 | 0.599 | 1.16
6 | SW 1573 | 0.762 | 0.853 | 0.77 | 0.789 | 1.02 | 0.917 | 1.06 | 1.14 | 0.961 | 0.995 | 0.929 | 0.606 | 0.667 | 0.664 | 0.51 | 0.493 | 0.578 | 0.624
